The subject of this data set is rodent carcinogenicity bioassays, tumor incidence. In words: CCRIS carcinogenicity studies. A digest of the protocol:
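Archive of carcinogenicity, mutagenicity, tumor promotion and tumor inhibition results drawn from journals, NCI reports and other sources, expert-reviewed; covers 1985-2011 and is no longer updated.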

Active and inactive are the calls of the source. No rule for the calls is given here.

Take `Clc1ccc(-c2cc(Cl)c(Cl)c(Cl)c2)cc1Cl`: the carcinogen call by setting is: (Species: RAT, Strain/Sex: SPRAGUE-DAWLEY/FEMALE, Route: GAVAGE, Dose: 0, 30, 100, 175, 300, 550, 1000 NG/KG BW 5 D/WK FOR 2 YRS, Dose: 0, 30, 100, 175, 300, 550, 1000 NG/KG BW 5 D/WK FOR 2 YRS, Tumor Site: Type of Lesion: LIVER: CHOLANGIOCARCINOMA, HEPATOCELLULAR ADENOMA OR CARCINOMA) “active; positive”; (Species: RAT, Strain/Sex: SPRAGUE-DAWLEY/FEMALE, Route: GAVAGE, Dose: 0, 30, 100, 175, 300, 550, 1000 NG/KG BW 5 D/WK FOR 2 YRS, Dose: 0, 30, 100, 175, 300, 550, 1000 NG/KG BW 5 D/WK FOR 2 YRS, Tumor Site: Type of Lesion: LUNG: CYSTIC KERATINIZING EPITHELIOMA) “active; positive”; (Species: RAT, Strain/Sex: SPRAGUE-DAWLEY/FEMALE, Route: GAVAGE, Dose: 0, 30, 100, 175, 300, 550, 1000 NG/KG BW 5 D/WK FOR 2 YRS, Dose: 0, 30, 100, 175, 300, 550, 1000 NG/KG BW 5 D/WK FOR 2 YRS, Tumor Site: Type of Lesion: ORAL CAVITY: SQUAMOUS CELL CARCINOMA) “active; positive”; (Species: RAT, Strain/Sex: SPRAGUE-DAWLEY/FEMALE, Route: GAVAGE, Dose: 1000 NG/KG BW 5 D/WK FOR 30 WKS (STUDY DURATION: 2 YRS)) “inactive; negative”; (Species: RAT, Strain/Sex: SPRAGUE-DAWLEY/FEMALE, Route: ORAL, Dose: 0, 30, 100, 175, 300, 550, 1000 NG/KG/D (STUDY DURATION: 2 YRS), Dose: 0, 30, 100, 175, 300, 550, 1000 NG/KG/D (STUDY DURATION: 2 YRS), Tumor Site: Type of Lesion: ORAL MUCOSA: SQUAMOUS CELL CARCINOMA) “active; positive; highest dose only”.
For `O=[N+]([O-])c1cc2ccc3cccc4ccc(c1)c2c34`, the carcinogen call was “inactive; negative” (Species: RAT, Strain/Sex: STRAIN-CD/FEMALE, Route: INJECTION, Dose: 0, 0.1 ML IN 20.3 UMOL/ML DMSO INJECTED INTO MAMMARY TISSUE OF THE 3 LEFT THORACIC NIPPLES FOLLOWED THE NEXT D BY SIMILA); “inactive; negative” (Species: RAT, Strain/Sex: STRAIN-CD/FEMALE, Route: INJECTION, Dose: 0, 0.1 ML OF A 20.3 UMOL/ML SOLUTION IN DMSO INJECTED INTO MAMMARY TISSUE UNDERLYING 3 LEFT THORACIC NIPPLES THE FOLLOWI); “active; positive” (Species: RAT, Strain/Sex: STRAIN-CD/FEMALE, Route: INTRAPERITONEAL, Dose: 0, 67 UMOL/KG BW IN DMSO 3/WK FOR 4 WK (STUDY DURATION: 61 WK), Tumor Site: Type of Lesion: HEMATOPOIETIC SYSTEM: LEUKEMIA, LYMPHOMA); “active; positive” (Species: RAT, Strain/Sex: STRAIN-CD/FEMALE, Route: INTRAPERITONEAL, Dose: 0, 67 UMOL/KG/BW IN 25 UMOL/ML DMSO 3/WK FOR 4 WK (TOTAL DOSE: 0; 119 UMOL) ADMINISTERED TO WEANLING RATS (STUDY DURATIO, Dose: 0, 67 UMOL/KG/BW IN 25 UMOL/ML DMSO 3/WK FOR 4 WK (TOTAL DOSE: 0; 119 UMOL) ADMINISTERED TO WEANLING RATS (STUDY DURATIO, Tumor Site: Type of Lesion: HEMATOPOIETIC SYSTEM: LEUKEMIA OR LYMPHOMA).
Turning to `Cc1ccc(N=Nc2c(O)ccc3ccccc23)c([N+](=O)[O-])c1`, the carcinogen call is, setting by setting: (Species: MOUSE, Strain/Sex: B6C3F1/FEMALE, Route: ORAL, Dose: 0, 12500, 25000, 50000 PPM IN FEED FOR 2 YR (STUDY DURATION: 2 YR), Dose: 0, 12500, 25000, 50000 PPM IN FEED FOR 2 YR (STUDY DURATION: 2 YR)) “inactive; negative”; (Species: MOUSE, Strain/Sex: B6C3F1/MALE, Route: ORAL, Dose: 0, 12500, 25000, 50000 PPM IN FEED FOR 2 YR (STUDY DURATION: 2 YR), Dose: 0, 12500, 25000, 50000 PPM IN FEED FOR 2 YR (STUDY DURATION: 2 YR), Tumor Site: Type of Lesion: KIDNEY (CORTEX): ADENOMA, THYROID GLAND (FOLLICULAR CELL): ADENOMA) “active; positive”; (Species: RAT, Strain/Sex: F344/FEMALE, Route: ORAL, Dose: 0, 6000, 12500, 25000 PPM IN FEED FOR 2 YR (STUDY DURATION: 2 YR), Dose: 0, 6000, 12500, 25000 PPM IN FEED FOR 2 YR (STUDY DURATION: 2 YR), Tumor Site: Type of Lesion: LIVER: HEPATOCELLULAR ADENOMA) “active; positive”; (Species: RAT, Strain/Sex: F344/MALE, Route: ORAL, Dose: 0, 6000, 12500, 25000 PPM IN FEED FOR 2 YR (STUDY DURATION: 2 YR), Dose: 0, 6000, 12500, 25000 PPM IN FEED FOR 2 YR (STUDY DURATION: 2 YR), Tumor Site: Type of Lesion: ADRENAL MEDULLA: PHEOCHROMOCYTOMA (BENIGN OR MALIGNANT)) “active; positive”.
As to `O=[N+]([O-])c1cc([As](=O)(O)O)ccc1O`, the carcinogen call (Species: MOUSE, Strain/Sex: B6C3F1/FEMALE, Route: ORAL, Dose: 0, 100, 200 PPM IN FEED FOR 103 WK (STUDY DURATION: 105 WK), Dose: 0, 100, 200 PPM IN FEED FOR 103 WK (STUDY DURATION: 105 WK)) was “inactive; negative”; the carcinogen call (Species: MOUSE, Strain/Sex: B6C3F1/MALE, Route: ORAL, Dose: 0, 100, 200 PPM IN FEED FOR 103 WK (STUDY DURATION: 105 WK), Dose: 0, 100, 200 PPM IN FEED FOR 103 WK (STUDY DURATION: 105 WK)) is “inactive; negative”; the carcinogen call (Species: RAT, Strain/Sex: F344/FEMALE, Route: ORAL, Dose: 0, 50, 100 PPM IN FEED FOR 103 WK (STUDY DURATION: 104 WK), Dose: 0, 50, 100 PPM IN FEED FOR 103 WK (STUDY DURATION: 104 WK)) was “inactive; negative”; the carcinogen call (Species: RAT, Strain/Sex: F344/MALE, Route: ORAL, Dose: 0, 50, 100 PPM IN FEED FOR 103 WK (STUDY DURATION: 104 WK), Dose: 0, 50, 100 PPM IN FEED FOR 103 WK (STUDY DURATION: 104 WK), Tumor Site: Type of Lesion: EXOCRINE PANCREAS: ADENOMA) is recorded as “equivocal”.
For the compound `O=C1OC(=O)c2ccccc21`, the carcinogen call is, setting by setting: (Species: MOUSE, Strain/Sex: B6C3F1/FEMALE, Route: ORAL, Dose: 0, 12019, 24038 PPM IN DIET, TWA (STUDY DURATION: 104 WK), Dose: 0, 12019, 24038 PPM IN DIET, TWA (STUDY DURATION: 104 WK)) “inactive; negative”; (Species: MOUSE, Strain/Sex: B6C3F1/MALE, Route: ORAL, Dose: 0, 16346, 32692 PPM IN DIET, TWA (STUDY DURATION: 104 WK), Dose: 0, 16346, 32692 PPM IN DIET, TWA (STUDY DURATION: 104 WK)) “inactive; negative”; (Species: RAT, Strain/Sex: F344/FEMALE, Route: ORAL, Dose: 0, 7500, 15000 PPM IN DIET FOR 105 WK, Dose: 0, 7500, 15000 PPM IN DIET FOR 105 WK) “inactive; negative”; (Species: RAT, Strain/Sex: F344/MALE, Route: ORAL, Dose: 0, 7500, 15000 PPM IN DIET FOR 105 WK, Dose: 0, 7500, 15000 PPM IN DIET FOR 105 WK) “inactive; negative”.
